Experimental findings from patent US20250051347A1, “BIFUNCTIONAL CHIMERIC HETEROCYCLIC COMPOUND AND USE THEREOF AS ANDROGEN RECEPTOR DEGRADER” (Hinova Pharmaceuticals, Inc., priority 2021, published 2025) are described below.

Each structure is given as a SMILES string.

The target in this test is T1, androgen receptor (AR) splicing variant AR-v7 (Homo sapiens, UniProt P10275).
T1 construct: The degradation activity of compounds on AR-v7 in 22RV1 cells; host or cells: 22RV1 cells
T1 sequence (P10275 1-644 isoform P10275-3): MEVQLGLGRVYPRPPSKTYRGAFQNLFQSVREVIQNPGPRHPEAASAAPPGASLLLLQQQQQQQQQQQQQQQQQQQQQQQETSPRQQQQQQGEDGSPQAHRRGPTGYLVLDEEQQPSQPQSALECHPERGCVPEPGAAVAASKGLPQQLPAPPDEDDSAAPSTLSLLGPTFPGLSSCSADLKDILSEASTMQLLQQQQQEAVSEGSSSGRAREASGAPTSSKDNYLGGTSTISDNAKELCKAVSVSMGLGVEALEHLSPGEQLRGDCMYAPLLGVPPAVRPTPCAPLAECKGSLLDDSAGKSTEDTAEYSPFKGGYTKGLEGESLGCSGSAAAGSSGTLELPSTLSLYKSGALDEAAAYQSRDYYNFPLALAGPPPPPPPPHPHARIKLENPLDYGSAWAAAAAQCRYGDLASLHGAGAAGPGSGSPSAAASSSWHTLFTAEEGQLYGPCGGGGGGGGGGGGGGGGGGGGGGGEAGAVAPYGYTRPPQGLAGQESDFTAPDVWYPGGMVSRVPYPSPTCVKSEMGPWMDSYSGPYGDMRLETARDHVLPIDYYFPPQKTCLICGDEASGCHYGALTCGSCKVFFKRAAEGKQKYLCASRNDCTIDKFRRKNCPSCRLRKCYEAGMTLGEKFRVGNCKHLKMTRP
Nature of the test: Degradation activity on androgen receptor splicing variant AR-v7 in 22RV1 cells (ELISA). Type of test: cell-based. To be noted: AR-v7 degradation in 22RV1 cells, 48 h, class symbols.

In turn, `CC(=O)c1nccc(COc2ccc(C(C)(C)c3ccc(OC[C@@H]4CCCN4c4ccc5c(c4)C(=O)N(C4CCC(=O)NC4=O)C5=O)cc3)cc2)n1` (stereo partly drawn) [Example 145, 5-((S)-2-((4-(2-(4-((2-acetylpyrimidin-4-yl)methoxy)phenyl)propan-2-yl)phenoxy)methyl)pyrrolidin-1-yl)-2-(2,6-dioxopiperidin-3-yl)isoindolin-1,3-dione] showed a DC50 of 101 to 1000 nM.
The result for `CC(=O)c1nccc(COc2ccc(C(C)(C)c3ccc(OC[C@H]4CC[C@H](Nc5ccc6c(c5)C(=O)N(C5CCC(=O)NC5=O)C6=O)CC4)cc3)cc2)n1` (stereo partly drawn) [Example 146] reads 1000 to 5000 nM.
`CC(C)(c1ccc(OCc2ccnc(N3CC4(COC4)C3)n2)cc1)c1ccc(OC2CCN(Cc3ccc4c(c3)C(=O)N(C3CCC(=O)NC3=O)C4=O)CC2)cc1` (stereo not drawn) [Example 147, 5-((4-(4-(2-(4-((2-(2-oxa-6-azaspiro[3.3]heptan-6-yl)pyrimidin-4-yl)methoxy)phenyl)propan-2-yl)phenoxy)piperidin-1-yl)methyl)-2-(2,6-dioxopiperidin-3-yl)isoindolin-1,3-dione] came in with a DC50 of 1000 to 5000 nM.
The compound `CC(C)[C@H](COc1ccc(C(C)(C)c2ccc(OCc3ccnc(N4CC5(COC5)C4)n3)cc2)cc1)Nc1ccc2c(c1)C(=O)N(C1CCC(=O)NC1=O)C2=O` (stereo partly drawn) [Example 149] showed a 50% degradation concentration (DC50) of 1000 to 5000 nM.
With `CC(C)[C@@H](COc1ccc(C(C)(C)c2ccc(OCc3ccnc(N4CC5(COC5)C4)n3)cc2)cc1)Nc1ccc2c(c1)C(=O)N(C1CCC(=O)NC1=O)C2=O` (stereo partly drawn) [Example 150], the DC50 was in the range of 11 to 100 nM.
Compound `CC(COc1ccc(C(C)(C)c2ccc(OCc3ccnc(N4CC5(COC5)C4)n3)cc2)cc1)Nc1ccc2c(c1)C(=O)N(C1CCC(=O)NC1=O)C2=O` (stereo not drawn) [Example 151, 5-((1-(4-(2-(4-((2-(2-oxa-6-azaspiro[3.3]heptan-6-yl)pyrimidin-4-yl)methoxy)phenyl)propan-2-yl)phenoxy)propan-2-yl)amino)-2-(2,6-dioxopiperidin-3-yl)isoindolin-1,3-dione] displayed a DC50 of 11 to 100 nM.
`CC(C)(c1ccc(OCc2ccnc(N3CC4(COC4)C3)n2)cc1)c1ccc(OC2CCCC[C@H]2Nc2ccc3c(c2)C(=O)N(C2CCC(=O)NC2=O)C3=O)cc1` (stereo partly drawn) [Example 152]: the DC50 was 1000 to 5000 nM.
In the case of `CC(C)(c1ccc(OCc2ccnc(N3CC4(COC4)C3)n2)cc1)c1ccc(O[C@H]2CC[C@@H](Nc3ccc4c(c3)C(=O)N(C3CCC(=O)NC3=O)C4=O)CC2)cc1` (stereo partly drawn) [Example 153, 5-(((1s,4s)-4-(4-(2-(4-((2-(2-oxa-6-azaspiro[3.3]heptan-6-yl)pyrimidin-4-yl)methoxy)phenyl)propan-2-yl)phenoxy)cyclohexyl)amino)-2-(2,6-dioxopyridin-3-yl)isoindolin-1,3-dione], the DC50 fell in the range of 101 to 1000 nM.
The compound `CC(C)(c1ccc(Oc2ncc(F)c(N3CC4(COC4)C3)n2)cc1)c1ccc(O[C@H]2C[C@@H](Nc3ccc4c(c3)C(=O)N(C3CCC(=O)NC3=O)C4=O)C2)cc1` (stereo partly drawn) [Example 157] returned a DC50 of 11 to 100 nM.
Consider `CC(C)(c1ccc(Oc2nc(N3CC4(COC4)C3)ncc2F)cc1)c1ccc(O[C@H]2C[C@@H](Nc3ccc4c(c3)C(=O)N(C3CCC(=O)NC3=O)C4=O)C2)cc1` (stereo partly drawn) [Example 158], for which the DC50 was in the range of 11 to 100 nM.
With `CC(C)(c1ccc(Oc2cncc(N3CC4(COC4)C3)n2)cc1)c1ccc(O[C@H]2C[C@@H](Nc3ccc4c(c3)C(=O)N(C3CCC(=O)NC3=O)C4=O)C2)cc1` (stereo partly drawn) [Example 159], the DC50 was 11 to 100 nM.
Compound `CC(C)(c1ccc(Oc2ccnc(-n3ccnn3)c2)cc1)c1ccc(O[C@H]2C[C@H](Nc3ccc4c(c3)C(=O)N(C3CCC(=O)NC3=O)C4=O)C2)cc1` (stereo partly drawn) [Example 163, 5-((1r,3r)-3-(4-(2-(2-(4-((1H-1,2,3-triazol-2-yl)pyridin-4-yl)oxy)phenyl)propan-2-ylphenoxy)cyclobutyl)amino)-2-(2,6-dioxopiperidin-3-yl)isoindolin-1,3-dione] came in with a DC50 of 11 to 100 nM.
With `CC(C)(c1ccc(Oc2cc(-n3nccn3)ccn2)cc1)c1ccc(O[C@H]2C[C@H](Nc3ccc4c(c3)C(=O)N(C3CCC(=O)NC3=O)C4=O)C2)cc1` (stereo partly drawn) [Example 165, 5-(((1r,3r)-3-(4-(2-((4-(2H-1,2,3-triazol-2-yl)pyridin-2-yl)oxy)phenyl)propan-2-ylphenoxy)cyclobutyl)amino)-2-(2,6-dioxopyridin-3-yl)isoindol-1,3-dione], the DC50 lay in the range of 11 to 100 nM.
Turning to `Cc1nc(-c2cc(Oc3ccc(C(C)(C)c4ccc(O[C@H]5C[C@H](Nc6ccc7c(c6)C(=O)N(C6CCC(=O)NC6=O)C7=O)C5)cc4)cc3)ccn2)no1` (stereo partly drawn) [Example 167, 2-(2,6-dioxopyridin-3-yl)-5-(((1r,3r)-3-(4-(2-((4-(2-(5-methyl-1,2,4-oxadiazol-3-yl)pyridin-4-yl)oxy)phenyl)propan-2-yl)phenoxy)cyclobutyl)amino) isoindolin-1,3-dione], the DC50 fell in the range of 11 to 100 nM.
Next, `Cc1nc(-c2cc(Oc3ccc(C(C)(C)c4ccc(O[C@H]5C[C@@H](Nc6ccc7c(c6)C(=O)N(C6CCC(=O)NC6=O)C7=O)C5)cc4)cc3)ccn2)no1` (stereo partly drawn) [Example 174, 2-(2,6-dioxopyridin-3-yl)-5-(((1s,3s)-3-(4-(2-(4-((2-(5-methyl-1,2,4-oxadiazol-3-yl)pyridin-4-yl)oxy)phenyl)propan-2-yl)phenoxy)cyclobutyl)amino) isoindolin-1,3-dione]: 11 to 100 nM; `Cc1nc(-c2ncc(Oc3ccc(C(C)(C)c4ccc(N5CCC56CN(c5ccc7c(c5)C(=O)N(C5CCC(=O)NC5=O)C7=O)C6)cc4)cc3)cn2)no1` (stereo not drawn) [Example 179, 2-(2,6-dioxopiperidin-3-yl)-5-(1-(4-(2-(4-((2-(5-methyl-1,2,4-oxadiazol-3-yl)pyrimidin-5-yl)oxy)phenyl)propan-2-yl)phenyl)-1,6-diazaspiro[3.3]heptan-6-yl)isoindolin-1,3-dione]: 101 to 1000 nM.
For the compound `CN(C)C(=O)c1noc(COc2ccc(C(C)(C)c3ccc(OCCCNc4ccc5c(c4)C(=O)N(C4CCC(=O)NC4=O)C5=O)cc3)cc2)n1` (stereo not drawn) [Example 180, 5-((4-(2-(4-(3-((2-(2,6-dioxopiperidin-3-yl)-1,3-dioxoisoindolin-5-yl)amino)propoxy)phenyl)propan-2-yl)phenoxy)methyl)-N,N-dimethyl-1,2,4-oxadiazol-3-carbonylamine], the DC50 was 1000 to 5000 nM.
`COC(=O)c1nccc(COc2ccc(C(C)(C)c3ccc(OCCCNc4ccc5c(c4)C(=O)N(C4CCC(=O)NC4=O)C5=O)cc3)cc2)n1` (stereo not drawn) [Example 184] returned a 50% degradation concentration (DC50) of 1000 to 5000 nM.
The result for `CN1CCN(c2ncc3c(n2)CN(c2ccc(C(C)(C)c4ccc(O[C@H]5C[C@@H](Nc6ccc7c(c6)C(=O)N(C6CCC(=O)NC6=O)C7=O)C5)cc4)cc2)CC3)CC1` (stereo partly drawn) [Example 191] reads 11 to 100 nM.
Compound `CN1CCN(c2ncc3c(n2)CN(c2ccc(C(C)(C)c4ccc(O[C@H]5C[C@H](Nc6ccc7c(c6)C(=O)N(C6CCC(=O)NC6=O)C7=O)C5)cc4)cc2)CC3)CC1` (stereo partly drawn) [Example 192, 2-(2,6-dioxopiperidin-3-yl)-5-((1r,3r)-3-(4-(2-(2-(4-methylpiperazin-1-yl)-5,8-dihydropyrido[3,4-d]pyrimidin-7(6H)-phenyl)propan-2-ylphenoxy)cyclobutyl)amino)isoindolin-1,3-dione] returned a DC50 of 11 to 100 nM.
The result for `Cc1nccc(Oc2ccc(C(C)(C)c3ccc(O[C@H]4C[C@@H](Nc5ccc6c(c5)C(=O)N(C5CCC(=O)NC5=O)C6=O)C4)cc3)cc2)n1` (stereo partly drawn) [Example 198] reads 11 to 100 nM; that for `CC(C)(c1ccc(OCc2nc(N3CC4(COC4)C3)ncc2F)cc1)c1ccc(O[C@H]2C[C@@H](Nc3ccc4c(c3)C(=O)N(C3CCC(=O)NC3=O)C4=O)C2)cc1` (stereo partly drawn) [Example 199], 11 to 100 nM; that for `CC(C)(c1ccc(OCc2nc(N3CC4(COC4)C3)ncc2Cl)cc1)c1ccc(O[C@H]2C[C@@H](Nc3ccc4c(c3)C(=O)N(C3CCC(=O)NC3=O)C4=O)C2)cc1` (stereo partly drawn) [Example 201, 5-((1s,3s)-3-(4-(2-(4-((5-chloro-2-(2-oxa-6-azaspiro[3.3]heptan-6-yl)pyrimidin-4-methoxy)phenyl)propan-2-yl)phenoxy)cyclobutyl)amino)-2-(2,6-dioxopiperidin-3-yl)isoindolin-1,3-dione], 11 to 100 nM.
For `CC(C)(c1ccc(OCc2nc(N3CC4(COC4)C3)ncc2Cl)cc1)c1ccc(O[C@H]2C[C@H](Nc3ccc4c(c3)C(=O)N(C3CCC(=O)NC3=O)C4=O)C2)cc1` (stereo partly drawn) [Example 202, 5-((1r,3r)-3-(4-(2-(4-((5-chloro-2-(2-oxa-6-azaspiro[3.3]heptan-6-yl)pyrimidin-4-methoxy)phenyl)propan-2-yl)phenoxy)cyclobutyl)amino)-2-(2,6-dioxopiperidin-3-yl)isoindolin-1,3-dione], the DC50 lay within 11 to 100 nM.
On to `Cc1cnc(N2CC3(COC3)C2)nc1COc1ccc(C(C)(C)c2ccc(O[C@H]3C[C@@H](Nc4ccc5c(c4)C(=O)N(C4CCC(=O)NC4=O)C5=O)C3)cc2)cc1` (stereo partly drawn) [Example 203], for which the DC50 lay within 11 to 100 nM.
In the case of `Cn1cc(-c2ccc(Oc3ccc(C(C)(C)c4ccc(O[C@H]5C[C@H](Nc6ccc7c(c6)C(=O)N(C6CCC(=O)NC6=O)C7=O)C5)cc4)cc3)cn2)cn1` (stereo partly drawn) [Example 205], the DC50 was in the range of 11 to 100 nM.
In turn, `CC(C)(c1ccc(Oc2ccc(-n3cccn3)nc2)cc1)c1ccc(O[C@H]2C[C@H](Nc3ccc4c(c3)C(=O)N(C3CCC(=O)NC3=O)C4=O)C2)cc1` (stereo partly drawn) [Example 208] yielded a DC50 of 11 to 100 nM.
